From patent US9480750B2, “Preparation of antibody or an antibody fragment targeted immunoliposomes for systemic administration of therapeutic or diagnostic agents and uses thereof” (GEORGETOWN UNIVERSITY, priority 1999, dated 2016)
Where a name gives a salt, the structure may show the parent alone. Read-outs that look alike come from different tables or passages of the source.

Tests used:
[1] = test system: MDA-MB-435 human melanoma cells; test: In vitro chemosensitization, XTT; type: cell-based
[2] = administered orally; cited from earlier work
advanced NSCLC = conditions: previously-treated advanced NSCLC; cited from earlier work
[3] = test system: DU145 human prostate cancer cells; test: In vitro chemosensitization, XTT; type: cell-based
[4] = test system: normal human lung fibroblasts IMR-90; test: In vitro chemosensitization of normal cells, XTT; type: cell-based; conditions: 2.5 uM Sunitinib malate, FIG. 43A-C
Protocol: The above sensitization results with B16/F10 and MDA-MB-435 were dramatically different from the results with normal human lung fibroblasts IMR-90 under the same conditions. […] The ratio of single-chain antibody fragment to liposome in each complex was 1:30 (w:w). […] After 48 hours, XTT assays were performed to assess cell viability in response to treatments. Each point represents the mean of triplicate samples±standard deviation. […] UT=untransfected.

[5] = test system: normal skin fibroblast cell line H500
[6] = cited from earlier work
[7] = TARCEVA plus gemcitabine; cited from earlier work
[8] = test system: Panc I subcutaneous xenograft tumors; test: In vivo chemosensitization of pancreatic xenograft; parameters: species or system mice; conditions: GEMZAR alone, intraperitoneally
Protocol: To show the universality of this delivery system two different human xenograft mouse tumor models (pancreatic cancer and breast cancer) were employed. In the first (FIG. 10A) Panc I subcutaneous xenograft tumors were induced in female athymic nude (NCR nu/nu) mice. When the tumors were 100-200 mm^3 in size the animals were injected with the chemotherapeutic agent GEMZAR® (intraperitoneally) and with […]-2 prepared by the method of this invention (I.V.). […] In addition to the I.V. injections the complex described above also was intratumorally injected. One group of animals received GEMZAR® only and a second control group received GEMZAR® plus the complex carrying empty vector.

cleaved caspase-3 = test: Western blot of cleaved caspase-3 from mice serum; type: in vivo, C57BL/6 mice; conditions: CDDP alone
Protocol: The blood collected from the retroorbital sinus of mice was centrifuged at 1,000 rpm for 10 minutes at room temperature after coagulation at room temperature for 1 hr. The serum was transferred to a new tube and centrifuged again at 10,000 g for 20 minutes. The supernatant serum was purified using a P-30 Micro-Bio-Spin Chromatography Column (BIORAD, Hercules, Calif.). Fifteen microliters of the fractions was loaded on a 4% to 12% gradient NuPAGE gel (Invitrogen Life Technologies, Carlsbad, Calif.) and run until the 10 kDa protein marker has run off the gel (approximately 1.5 to 2 hours). After electrophoresis, the proteins were transferred onto a Protran BA 85 nitrocellulose transfer membrane (Schleicher and Schuell, BioScience, Keene, N. H.). Finally, a Western blot analysis for cleaved caspase-3 was performed with cleaved caspase-3 (17 kD) antibody. To block nonspecific binding, the membrane was incubated at room temperature for 1 hour with 5% nonfat dry milk in 10 mM Tris-HCl buffer, pH 8.0, containing 150 mM NaCl and 0.05% Tween 20 (TBST). […] The protein was detected using goat antirabbit secondary antibody (Jackson ImmunoResearch Laboratories, West Grove, Pa.), ECL Western blotting detection reagent, and Hyperfilm ECL (Amersham, Piscataway, N.J.).

COc1cc2ncnc(Nc3ccc(F)c(Cl)c3)c2cc1OCCCN1CCOCC1 [Geftinib, Gefitinib]
sensitization to TAXOTERE ([1]; free Geftinib, 15 µM): did not sensitize the cells at all | half-lives [2]: ~46 h | patients achieving tumor shrinkage or stabilization of their tumor (advanced NSCLC): Approximately 50%

CCN(CC)CCNC(=O)c1c(C)[nH]c(/C=C2\C(=O)Nc3ccc(F)cc32)c1C [Sunitinib malate]
sensitization to Mitoxantrone ([3]; 5 μM free Sunitinib malate): only minimal effect on sensitization | sensitization to Mitoxantrone, TAXOTERE or Gemcitabine [4]: no significant increase in sensitization | sensitization to Mitoxantrone, TAXOTERE or Gemcitabine ([5]; 2.5 or 5 uM Sunitinib malate, FIG. 42A-C): no significant increase in sensitization

C#Cc1cccc(Nc2ncnc3cc(OCCOC)c(OCCOC)cc23)c1 [Erlotinib, N-(3-ethynylphenyl)-6,7-bis(2-methoxyethoxy)-4-quinazolinamine]
sensitization to Mitoxantrone ([3]; 3.75 uM Erlotinib): does not sensitize the cells to Mitoxantrone | sensitization to Mitoxantrone ([3]; 7.5 uM Erlotinib): had no effect on the response to the chemotherapeutic agent | sensitization to TAXOTERE ([1]; free Erlotinib): only minimal effect | sensitization to Mitoxantrone, TAXOTERE or Gemcitabine ([5]; 7.5 uM Erlotinib, FIG. 36A-C): no significant increase in sensitization | half-lives [2]: ~36 h | incidence of ILD-like events ([6]; NSCLC single-agent trial): 0.8% | Grade 3/4 diarrhea ([6]; monotherapy 150 mg, NSCLC): 6% | Grade 3/4 rash ([6]; monotherapy 150 mg, NSCLC): 9% | patients discontinuing due to rash or diarrhea, each ([6]; monotherapy 150 mg, NSCLC): 1% | Diarrhea [7]: 48% | Rash [7]: 69% | dose reductions due to rash and diarrhea, each [7]: two percent | study discontinuation due to rash and diarrhea [7]: up to one percent

Nc1ccn([C@@H]2O[C@H](CO)[C@@H](O)C2(F)F)c(=O)n1 [GEMZAR®, gemcitabine HCl]
tumor growth [8]: not able to significantly inhibit pancreatic tumor growth

Cc1ccc(NC(=O)c2ccc(CN3CCN(C)CC3)cc2)cc1Nc1nccc(-c2cccnc2)n1 [Imatinib Mesylate]
sensitization to TAXOTERE ([1]; 20 uM Imatinib Mesylate): does not sensitize the cells

[NH2][Pt]([NH2])([Cl])[Cl] [CDDP, cisplatin]
cleaved caspase-3 in serum (cleaved caspase-3): only a weak band
